How the values were obtained:
AADAC [1] = assay: Contribution of AADAC to vicagrel hydrolase activity in HIM (RAF method); type: in vitro ADME, human; settings: phenacetin as probe
Source text: (§1) The RAF method was applied as the ratio of activity values to evaluate the contribution of CES2 and AADAC to vicagrel hydrolysis in HIM. […] The following formulas were used to predict the vicagrel hydrolase activities of CES2 (VCES2, HIM), and AADAC (VAADAC, HIM) in HIM:
(3) VAADAC, HIM = Vrec−AADAC × […], HIM
(§2) V rec-CES2 and V rec-AADAC are the vicagrel hydrolase activities of recombinant CES2 and AADAC, respectively. The following equations were used to calculate the contributions of CES2 and AADAC to vicagrel hydrolase activities in HIM:
(5) AADAC in HIM(%) = (VAADAC, HIM/VHIM) × 100
(§3) where the V HIM value is the observed vicagrel hydrolase activities in HIM.

CES2 [2] = molecular target: T1, CES2 (Homo sapiens, UniProt O00748); assay: Hydrolase activity by recombinant human CES2; type: in vitro ADME
T1 construct: purchased Cypex Ltd. (Scotland, United Kingdom)
T1 sequence (O00748 27-559): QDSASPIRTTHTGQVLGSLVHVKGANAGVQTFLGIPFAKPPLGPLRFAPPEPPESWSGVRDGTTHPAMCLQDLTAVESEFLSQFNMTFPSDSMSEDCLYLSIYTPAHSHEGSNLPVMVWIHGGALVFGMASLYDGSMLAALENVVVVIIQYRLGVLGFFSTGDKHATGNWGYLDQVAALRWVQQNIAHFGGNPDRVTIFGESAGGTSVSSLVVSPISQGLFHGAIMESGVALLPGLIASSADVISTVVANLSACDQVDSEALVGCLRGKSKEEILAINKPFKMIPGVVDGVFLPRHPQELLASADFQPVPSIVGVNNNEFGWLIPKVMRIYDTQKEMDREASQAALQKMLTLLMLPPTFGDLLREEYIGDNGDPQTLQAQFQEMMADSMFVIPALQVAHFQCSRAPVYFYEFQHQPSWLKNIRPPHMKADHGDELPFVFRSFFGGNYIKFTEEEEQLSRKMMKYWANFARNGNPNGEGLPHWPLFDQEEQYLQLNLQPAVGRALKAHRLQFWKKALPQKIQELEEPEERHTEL
Source text: (§4) (1) v = Vmax × S/(Km + S)

CES1 = molecular target: T2, CES1 (Homo sapiens, UniProt P23141); assay: Hydrolase activity by recombinant human CES1; type: in vitro ADME
T2 construct: purchased Cypex Ltd. (Scotland, United Kingdom)
T2 sequence (P23141 18-567): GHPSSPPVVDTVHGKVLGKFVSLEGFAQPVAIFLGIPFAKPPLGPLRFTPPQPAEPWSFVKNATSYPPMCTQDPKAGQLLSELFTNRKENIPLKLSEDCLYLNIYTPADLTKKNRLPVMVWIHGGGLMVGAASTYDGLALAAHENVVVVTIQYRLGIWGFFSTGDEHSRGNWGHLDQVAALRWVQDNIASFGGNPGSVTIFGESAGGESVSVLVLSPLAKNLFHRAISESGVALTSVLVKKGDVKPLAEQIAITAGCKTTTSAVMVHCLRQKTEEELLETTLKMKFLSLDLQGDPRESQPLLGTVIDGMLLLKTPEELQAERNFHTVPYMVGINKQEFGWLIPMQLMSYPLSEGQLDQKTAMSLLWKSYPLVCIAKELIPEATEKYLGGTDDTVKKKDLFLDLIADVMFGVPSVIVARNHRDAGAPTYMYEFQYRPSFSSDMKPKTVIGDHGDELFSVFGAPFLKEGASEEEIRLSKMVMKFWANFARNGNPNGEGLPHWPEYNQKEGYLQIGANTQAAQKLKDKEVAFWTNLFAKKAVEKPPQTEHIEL
Source text: as §4

[3] = set-up: method as in Liu et al., 2017; settings: healthy subjects, oral vicagrel tablets, during the sampling period; ref Liu et al., 2017; cited from earlier work
[4] = Hydrolase activity in dog intestine microsomes; type: in vitro ADME
Source text: as §4

[5] = Hydrolase activity (kinetics and marker substrates) in human intestine microsomes
Source text: as §4

[6] = set-up: method as in Liu et al., 2017; settings: healthy subjects; oral 5 mg vicagrel and 75 mg clopidogrel; ref Liu et al., 2017; cited from earlier work
[7] = Hydrolase activity (kinetics and marker substrates) in human liver microsomes; type: in vitro ADME
Source text: as §4

CES2 [8] = assay: Contribution of CES2 to vicagrel hydrolase activity in HIM (RAF method); type: in vitro ADME, human
Source text: as §1
(2) VCES2, HIM = Vrec−CES2 × RAFCES2, HIM
as §2
(4) CES2 in HIM(%) = (VCES2, HIM/VHIM) × 100
as §3

[9] = set-up: method as in Qiu et al., 2013; settings: rats and beagle dogs, ref Qiu et al., 2013, cited from earlier work
AADAC [10] = molecular target: T3, AADAC (Homo sapiens, UniProt P22760); assay: Hydrolase activity by recombinant human AADAC
T3 sequence (P22760 1-399): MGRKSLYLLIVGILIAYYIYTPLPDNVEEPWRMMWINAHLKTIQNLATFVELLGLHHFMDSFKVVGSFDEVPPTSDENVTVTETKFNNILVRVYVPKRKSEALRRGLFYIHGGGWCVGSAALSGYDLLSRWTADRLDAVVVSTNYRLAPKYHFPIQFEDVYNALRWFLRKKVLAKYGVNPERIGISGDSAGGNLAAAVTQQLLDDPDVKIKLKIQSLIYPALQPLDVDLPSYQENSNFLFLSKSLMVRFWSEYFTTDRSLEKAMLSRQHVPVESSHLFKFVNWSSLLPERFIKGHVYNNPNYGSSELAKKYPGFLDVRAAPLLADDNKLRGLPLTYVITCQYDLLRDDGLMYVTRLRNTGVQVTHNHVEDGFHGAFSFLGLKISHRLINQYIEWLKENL

COC(=O)[C@H](c1ccccc1Cl)N1CCc2sc(OC(C)=O)cc2C1 [vicagrel, Vicagrel]
Contribution of AADAC to vicagrel hydrolysis (AADAC [1]): approximately 53% | Contribution of AADAC to vicagrel hydrolysis (AADAC [1]; listed as Vicagrel): 53.1% | microsomal CLint (CES2 [2]; human, recombinant human CES2, pH 7.4, recombinant CES2, calculated as Vmax/Km, read-out: CLint of vicagrel hydrolysis): 46100 ± 3100 µL/min/mg | Hydrolase activity (vicagrel), Vrec-CES2 (CES2 [2]; recombinant CES2): 26.1 nmol/min/mg | Vmax of vicagrel hydrolysis (CES2 [2]; recombinant CES2 0.01 mg/mL, 1 min): 331.2 ± 14.9 nmol/min/mg protein | microsomal CLint (CES1; human, recombinant human CES1, pH 7.4, recombinant CES1, calculated as Vmax/Km, read-out: CLint of vicagrel hydrolysis): 29000 ± 2300 µL/min/mg | Hydrolase activity (vicagrel) (CES1; recombinant CES1): 17.3 nmol/min/mg | Vmax of vicagrel hydrolysis (CES1; recombinant CES1 0.01 mg/mL, 2 min): 264.0 ± 16.6 nmol/min/mg protein | Parent drug in human plasma [3]: undetectable | Vmax of vicagrel hydrolysis ([4]; DIM 0.01 mg/mL, 1 min): 171.4 ± 3.9 nmol/min/mg protein | Km at 1 min ([4]; dog, dog intestine microsomes, pH 7.4, DIM 0.01 mg/mL, 1 min, read-out: Km of vicagrel hydrolysis): 8.37 ± 0.69 µM | microsomal CLint ([4]; dog, dog intestine microsomes, pH 7.4, DIM, calculated as Vmax/Km, read-out: CLint of vicagrel hydrolysis): 20500 ± 1300 µL/min/mg | Vmax of vicagrel hydrolysis ([5]; HIM 0.01 mg/mL, 1 min): 347.2 ± 6.4 nmol/min/mg protein | Hydrolase activity (vicagrel), VHIM ([5]; human, 1 min, pH 7.4): 48.0 nmol/min/mg | microsomal CLint ([5]; human, microsomes, pH 7.4): 53100 ± 1040 µL/min/mg | Km at 1 min ([5]; human, pH 7.4): 6.54 ± 0.45 µM | Antiplatelet effects versus clopidogrel [6]: Comparable antiplatelet effects | Hydrolase activity (vicagrel) ([7]; HLM): 96.5 nmol/min/mg | Vmax of vicagrel hydrolysis ([7]; HLM 0.01 mg/mL, 1 min): 917.6 ± 23.5 nmol/min/mg protein | Km at 1 min ([7]; human, human liver microsomes, pH 7.4, HLM 0.01 mg/mL, 1 min, formation of 2-oxo-clopidogrel, read-out: Km of vicagrel hydrolysis): 7.18 ± 0.66 µM | Contribution of CES2 to vicagrel hydrolysis (CES2 [8]; HIM, RAF method, procaine as probe): 44.2% | Sum of the contributions of CES2 and AADAC to vicagrel hydrolysis (CES2 [8]; HIM, RAF method, CES2 plus AADAC): 97.3% | Calculated vicagrel hydrolase activity of CES2 in HIM (VCES2, HIM) (CES2 [8]; Vrec-CES2 × RAFCES2, HIM): 21.2 nmol/min/mg protein | Production of H4 from vicagrel relative to clopidogrel ([9]; oral, same dose): four to six times higher | Production of 2-oxo-clopidogrel from vicagrel relative to clopidogrel [9]: about six times | microsomal CLint (AADAC [10]; human, recombinant human AADAC, pH 7.4): 39000 ± 3100 µL/min/mg | Hydrolase activity (vicagrel), Vrec-AADAC (AADAC [10]; recombinant AADAC): 21.8 nmol/min/mg | Vmax of vicagrel hydrolysis (AADAC [10]; recombinant AADAC 0.015 mg/mL, 2 min): 381.7 ± 24.7 nmol/min/mg protein

Source: article PMC5701912, “Arylacetamide Deacetylase Is Involved in Vicagrel Bioactivation in Humans” (Frontiers in Pharmacology, 2017)
